Experimental data taken from the NIST ThermoML archive (doi:10.1021/je2008582).
± gives the expanded uncertainty stated by the source.

Conditions: Liquid, Vibrating tube method

CCCCC/C=C\C/C=C\CCCCCCCC(=O)OC [methyl (Z,Z)-9,12-octadecadienate]
mass density (270 K, 490 kPa): 904.6 ± 0.8 kg/m3 | mass density (270 K, 990 kPa): 904.9 ± 0.8 kg/m3 | mass density (270 K, 1990 kPa): 905.4 ± 0.8 kg/m3 | mass density (270 K, 3000 kPa): 905.9 ± 0.8 kg/m3 | mass density (270 K, 3990 kPa): 906.5 ± 0.8 kg/m3 | mass density (270 K, 5000 kPa): 907 ± 0.8 kg/m3 | mass density (270 K, 10000 kPa): 909.6 ± 0.8 kg/m3 | mass density (270 K, 20000 kPa): 914.6 ± 0.9 kg/m3 | mass density (270 K, 29990 kPa): 919.3 ± 0.9 kg/m3 | mass density (270 K, 39990 kPa): 923.8 ± 0.9 kg/m3 | mass density (270 K, 49970 kPa): 928.2 ± 0.9 kg/m3 | mass density (290 K, 500 kPa): 889.7 ± 0.8 kg/m3 | mass density (290 K, 990 kPa): 890 ± 0.8 kg/m3 | mass density (290 K, 1990 kPa): 890.6 ± 0.8 kg/m3 | mass density (290 K, 2990 kPa): 891.2 ± 0.8 kg/m3 | mass density (290 K, 3990 kPa): 891.8 ± 0.8 kg/m3 | mass density (290 K, 5000 kPa): 892.4 ± 0.8 kg/m3 | mass density (290 K, 9990 kPa): 895.2 ± 0.8 kg/m3 | mass density (290 K, 19990 kPa): 900.7 ± 0.9 kg/m3 | mass density (290 K, 30000 kPa): 905.8 ± 0.9 kg/m3 | mass density (290 K, 39990 kPa): 910.7 ± 0.9 kg/m3 | mass density (290 K, 49970 kPa): 915.3 ± 0.9 kg/m3 | mass density (310 K, 500 kPa): 875.1 ± 0.8 kg/m3 | mass density (310 K, 1000 kPa): 875.4 ± 0.8 kg/m3 | mass density (310 K, 1990 kPa): 876.1 ± 0.8 kg/m3 | mass density (310 K, 2990 kPa): 876.7 ± 0.8 kg/m3 | mass density (310 K, 3990 kPa): 877.4 ± 0.8 kg/m3 | mass density (310 K, 4990 kPa): 878 ± 0.8 kg/m3 | mass density (310 K, 9990 kPa): 881.1 ± 0.9 kg/m3 | mass density (310 K, 20000 kPa): 887 ± 0.9 kg/m3 | mass density (310 K, 30000 kPa): 892.5 ± 0.9 kg/m3 | mass density (310 K, 39990 kPa): 897.8 ± 0.9 kg/m3 | mass density (310 K, 49990 kPa): 902.8 ± 0.9 kg/m3 | mass density (330 K, 490 kPa): 860.6 ± 0.8 kg/m3 | mass density (330 K, 990 kPa): 860.9 ± 0.8 kg/m3 | mass density (330 K, 1990 kPa): 861.6 ± 0.8 kg/m3 | mass density (330 K, 2990 kPa): 862.4 ± 0.8 kg/m3 | mass density (330 K, 3990 kPa): 863.1 ± 0.8 kg/m3 | mass density (330 K, 4990 kPa): 863.8 ± 0.8 kg/m3 | mass density (330 K, 9990 kPa): 867.1 ± 0.9 kg/m3 | mass density (330 K, 19990 kPa): 873.5 ± 0.9 kg/m3 | mass density (330 K, 29980 kPa): 879.5 ± 0.9 kg/m3 | mass density (330 K, 39990 kPa): 885.1 ± 0.9 kg/m3 | mass density (330 K, 50000 kPa): 890.4 ± 0.9 kg/m3 | mass density (350 K, 500 kPa): 846.2 ± 0.8 kg/m3 | mass density (350 K, 1000 kPa): 846.6 ± 0.8 kg/m3 | mass density (350 K, 1990 kPa): 847.4 ± 0.8 kg/m3 | mass density (350 K, 2990 kPa): 848.2 ± 0.8 kg/m3 | mass density (350 K, 3990 kPa): 848.9 ± 0.8 kg/m3 | mass density (350 K, 5000 kPa): 849.7 ± 0.8 kg/m3 | mass density (350 K, 9990 kPa): 853.4 ± 0.9 kg/m3 | mass density (350 K, 19990 kPa): 860.3 ± 0.9 kg/m3 | mass density (350 K, 29990 kPa): 866.7 ± 0.9 kg/m3 | mass density (350 K, 40000 kPa): 872.7 ± 0.9 kg/m3 | mass density (350 K, 49980 kPa): 878.4 ± 0.9 kg/m3 | mass density (370 K, 490 kPa): 831.6 ± 0.8 kg/m3 | mass density (370 K, 990 kPa): 832.1 ± 0.8 kg/m3 | mass density (370 K, 1990 kPa): 832.9 ± 0.8 kg/m3 | mass density (370 K, 2990 kPa): 833.8 ± 0.8 kg/m3 | mass density (370 K, 4000 kPa): 834.6 ± 0.8 kg/m3 | mass density (370 K, 5000 kPa): 835.5 ± 0.8 kg/m3 | mass density (370 K, 10000 kPa): 839.5 ± 0.9 kg/m3 | mass density (370 K, 19990 kPa): 847 ± 0.9 kg/m3 | mass density (370 K, 29990 kPa): 854 ± 0.9 kg/m3 | mass density (370 K, 39990 kPa): 860.4 ± 0.9 kg/m3 | mass density (370 K, 49980 kPa): 866.4 ± 0.9 kg/m3 | mass density (390 K, 490 kPa): 817.1 ± 0.8 kg/m3 | mass density (390 K, 990 kPa): 817.6 ± 0.8 kg/m3 | mass density (390 K, 1990 kPa): 818.5 ± 0.8 kg/m3 | mass density (390 K, 3000 kPa): 819.5 ± 0.8 kg/m3 | mass density (390 K, 3990 kPa): 820.4 ± 0.8 kg/m3 | mass density (390 K, 4990 kPa): 821.3 ± 0.8 kg/m3 | mass density (390 K, 9990 kPa): 825.8 ± 0.9 kg/m3 | mass density (390 K, 20000 kPa): 834 ± 0.9 kg/m3 | mass density (390 K, 29990 kPa): 841.4 ± 0.9 kg/m3 | mass density (390 K, 40000 kPa): 848.3 ± 0.9 kg/m3 | mass density (390 K, 49990 kPa): 854.7 ± 0.9 kg/m3 | mass density (410 K, 490 kPa): 802.5 ± 0.8 kg/m3 | mass density (410 K, 1000 kPa): 803 ± 0.8 kg/m3 | mass density (410 K, 2000 kPa): 804.1 ± 0.8 kg/m3 | mass density (410 K, 2990 kPa): 805.1 ± 0.8 kg/m3 | mass density (410 K, 3990 kPa): 806.2 ± 0.8 kg/m3 | mass density (410 K, 4990 kPa): 807.2 ± 0.9 kg/m3 | mass density (410 K, 9990 kPa): 812.1 ± 0.9 kg/m3 | mass density (410 K, 19990 kPa): 821 ± 0.9 kg/m3 | mass density (410 K, 29990 kPa): 829.1 ± 0.9 kg/m3 | mass density (410 K, 40000 kPa): 836.5 ± 0.9 kg/m3 | mass density (410 K, 49970 kPa): 843.3 ± 1 kg/m3 | mass density (430 K, 490 kPa): 787.5 ± 0.8 kg/m3 | mass density (430 K, 1000 kPa): 788.1 ± 0.8 kg/m3 | mass density (430 K, 1990 kPa): 789.3 ± 0.8 kg/m3 | mass density (430 K, 2990 kPa): 790.5 ± 0.8 kg/m3 | mass density (430 K, 3990 kPa): 791.6 ± 0.9 kg/m3 | mass density (430 K, 5000 kPa): 792.7 ± 0.9 kg/m3 | mass density (430 K, 9990 kPa): 798.1 ± 0.9 kg/m3 | mass density (430 K, 19990 kPa): 807.9 ± 0.9 kg/m3 | mass density (430 K, 29990 kPa): 816.6 ± 0.9 kg/m3 | mass density (430 K, 40000 kPa): 824.5 ± 0.9 kg/m3 | mass density (430 K, 50010 kPa): 831.8 ± 1 kg/m3 | mass density (450 K, 490 kPa): 772.5 ± 0.8 kg/m3 | mass density (450 K, 990 kPa): 773.2 ± 0.8 kg/m3 | mass density (450 K, 2000 kPa): 774.5 ± 0.8 kg/m3 | mass density (450 K, 2990 kPa): 775.8 ± 0.9 kg/m3 | mass density (450 K, 4000 kPa): 777.1 ± 0.9 kg/m3 | mass density (450 K, 4990 kPa): 778.3 ± 0.9 kg/m3 | mass density (450 K, 10000 kPa): 784.3 ± 0.9 kg/m3 | mass density (450 K, 19990 kPa): 794.9 ± 0.9 kg/m3 | mass density (450 K, 30000 kPa): 804.3 ± 0.9 kg/m3 | mass density (450 K, 39990 kPa): 812.8 ± 1 kg/m3 | mass density (450 K, 49980 kPa): 820.6 ± 1 kg/m3 | mass density (470 K, 500 kPa): 757.5 ± 0.8 kg/m3 | mass density (470 K, 990 kPa): 758.3 ± 0.8 kg/m3 | mass density (470 K, 1990 kPa): 759.7 ± 0.9 kg/m3 | mass density (470 K, 3000 kPa): 761.2 ± 0.9 kg/m3 | mass density (470 K, 3990 kPa): 762.6 ± 0.9 kg/m3 | mass density (470 K, 4990 kPa): 764 ± 0.9 kg/m3 | mass density (470 K, 9990 kPa): 770.6 ± 0.9 kg/m3 | mass density (470 K, 19990 kPa): 782.2 ± 0.9 kg/m3 | mass density (470 K, 29990 kPa): 792.4 ± 0.9 kg/m3 | mass density (470 K, 39990 kPa): 801.5 ± 1 kg/m3 | mass density (470 K, 49980 kPa): 809.7 ± 1 kg/m3
